From publication PMC10741979, “Inhibition of NMDA Receptor Activation in the Rostral Ventrolateral Medulla by Amyloid-β Peptide in Rats” (Biomolecules, 2023)

Legend:
Assay type in all cases: in vivo, rats
[1] = test system: NMDA receptors in the RVLM; test: Pressor response to microinjection of NMDA into the RVLM; details: 0.14 nmol
From the text: (§1) The procedure for ICV administration of anesthetized rats was similar to those described in our previous study. Adult male Sprague Dawley 8–10 weeks old rats (300–400 g) were used in this experiment under urethane anesthetized (1.2–1.5 g/kg i.p.). The femoral artery was cannulated with polyethylene tubing (PE 50) and connected with its output to BIOPAC Systems Inc. (MP100 or MP160) to measure pulsatile and mean arterial pressure. After a set of blood pressure recordings, each rat was arranged in a stereotaxic frame for ICV and RVLM microinjection using a stainless still needle connected to the Hamilton microsyringes (10 µL). Drugs were microinjected using a syringe pump (KDS 100) at a rate of 10 µL/min. The magnitude of increases in the blood pressure (pressor responses) induced by microinjection of NMDA (0.14 nmol, 100 nL) into the RVLM every 30 min was used as an index of NMDA receptor function in the RVLM. Aβ and 0.9% saline (5 µL) were applied intracerebroventricularly. The data were processed and calculated before the treatment and at a different period after drug administration.

[2] = test system: NMDA receptors in the RVLM; test: NMDA-induced pressor responses in the RVLM after ICV drug administration
From the text: as §1
All values are expressed as mean ± SEM and statistically analyzed using GraphPad Prism version 9.0 for Windows (GraphPad Software, San Diego, CA, USA). We analyzed the original data for NMDA-induced increases in MAP (mmHg) before and after applications of Aβ statistically. The time-effect relationship of Aβ on NMDA-induced pressor responses was analyzed using the repeated measure one-way ANOVA followed by Bonferroni’s multiple comparison post-test. p ≤ 0.05 is considered statistically significant. We compared the effects of Aβ on NMDA-increased mean arterial pressure to the control and expressed them as percentage changes; the peak amplitude of NMDA-induced pressor responses before the application of Aβ is taken as control (i.e., 100%). Immunohistochemical data and ELISA data were analyzed using an unpaired t-test. p ≤ 0.05 is considered statistically significant.

pGluN1-serine896 = test: Immunohistochemistry, number of pGluN1-serine896-immunoreactive neurons in the RVLM; details: 10 min after ICV 2 nmol; mean ± SEM, n = 6; saline group 48.9 ± 1.8; no significant difference
Procedure: (§2) The procedure of immunostaining of RVLM tissue sections was similar to those previously described. The animals were anesthetized with i.p. urethane (1.2–1.5 g/kg). The rat was sacrificed at 10 min following ICV administration of Aβ or saline by transcardial perfusion with 50 mL of saline followed by 300–400 mL of paraformaldehyde (4%) in 0.1 M phosphate buffer (pH 7.4). The RVLM was post-fixed in the same fixative overnight and then cryoprotected in 30% sucrose in 0.05 M phosphate buffer (pH 7.4) for 48 h. Coronal brainstem sections (30 μm) were cut through the segments using a cryostat (Leica CM3050S, Leica Microsystems Nussloch GmbH, Nussloch, Germany). […] For the relative quantification of immunoreactivity, each image field was captured using a CCD camera mounted on a microscope (Nikon Eclipse E800, Corporation, Tokyo, Japan). […] The average number of immunoreactive (IR) neurons on both sides per section was counted and averaged. We randomly took 4–6 sections per animal and calculated the average number of IR neurons representing the animal’s immunoreactivity to the antibody.
(§3) All values are expressed as mean ± SEM and statistically analyzed using GraphPad Prism version 9.0 for Windows (GraphPad Software, San Diego, CA, USA). We analyzed the original data for NMDA-induced increases in MAP (mmHg) before and after applications of Aβ statistically. […]

GluN2B = test: Immunofluorescence, number of GluN2B-IF neurons in the RVLM; details: 10 min after ICV 2 nmol; mean ± SEM, n = 7; saline group 55.2 ± 1.4
Procedure: as §2, §3

pGluN2B-serine1480 = test: Immunofluorescence, number of pGluN2B-serine1480-IF neurons in the RVLM; details: 10 min after ICV 2 nmol; mean ± SEM, n = 6; saline group 45.9 ± 1.0 (n = 8); significant difference
Procedure: as §2, §3

GluN1 = test: Immunohistochemistry, number of GluN1-immunoreactive neurons in the RVLM; details: 10 min after ICV 2 nmol; mean ± SEM, n = 6; saline group 63.2 ± 2.4; no significant difference
Procedure: as §2, §3

[3] = ICV 2 nmol (Aβ1-40 n = 14, Aβ1-42 n = 9), NMDA 0.14 nmol into RVLM every 30 min, urethane-anesthetized male SD rats

CN[C@H](CC(=O)O)C(=O)O [NMDA, N-methyl-D-aspartate]
duration of pressor responses ([1]; 100 nL into RVLM): 10 to 15 min | onset of pressor responses ([1]; 100 nL into RVLM): ≤ 2 min | effect of microinjection into the RVLM on MAP ([1]; 100 nL, at intervals of 30 min, urethane-anesthetized male SD rats): induced an increase in MAP

CC(C(O)c1ccc(O)cc1)N1CCC(Cc2ccccc2)CC1 (centres unmarked) [ifenprodil]
effect on NMDA-induced pressor responses in the RVLM ([2]; ICV 0.5 nmol alone, n = 5): did not produce any noticeable changes | effect on NMDA-induced pressor responses in the RVLM ([2]; ICV 2.5 nmol alone, n = 5): significantly inhibited | effect of co-administration on the inhibitory effects of Aβ1-40 on NMDA-induced pressor responses ([2]; ICV ifenprodil 0.5 nmol with Aβ1-40 2 nmol, n = 6): attenuated the inhibitory effects

CC12CC3CC(C)(C1)CC(N)(C3)C2 [memantine]
effect on NMDA-induced pressor responses in the RVLM ([2]; ICV 9 nmol alone, n = 6, 10 and 40 min after administration): did not produce any noticeable changes | effect of co-administration on the inhibitory effects of Aβ1-40 on NMDA-induced pressor responses ([2]; ICV memantine 9 nmol with Aβ1-40 2 nmol, n = 4): disappeared

Aβ1-40: soluble human amyloid-beta peptide 1-40, purchased from Taiclone Biotech Corp.
effect on NMDA-induced pressor responses in the RVLM ([2]; ICV 0.2 nmol, n = 12, NMDA 0.14 nmol into RVLM every 30 min, urethane-anesthetized male SD rats): slight reduction | effect on NMDA-induced pressor responses in the RVLM [2, 3]: significantly inhibited | number of pGluN1-serine896-IR neurons in the RVLM (pGluN1-serine896): 46.4 ± 0.8 | number of GluN2B-IF neurons in the RVLM (GluN2B): 59.2 ± 2.7 | number of pGluN2B-serine1480-IF neurons in the RVLM (pGluN2B-serine1480): 52.6 ± 2.0 | number of GluN1-IR neurons in the RVLM (GluN1): 63.2 ± 3.8

Aβ1-42: soluble human amyloid-beta peptide 1-42, purchased from Taiclone Biotech Corp.
effect on NMDA-induced pressor responses in the RVLM [2, 3]: did not produce any noticeable changes | effect on NMDA-induced pressor responses in the RVLM on co-administration with ifenprodil ([2]; ICV Aβ1-42 2 nmol with ifenprodil 0.5 nmol, n = 6): little effect | effect on NMDA-induced pressor responses in the RVLM on co-administration with memantine ([2]; ICV Aβ1-42 2 nmol with memantine 9 nmol, n = 6): did not show noticeable changes
